We go through 21 molecules from patent US8563567B2, “Substituted heterocyclic compounds” (ArQule, Inc., priority 2009, dated 2013).

The target in test [1] is T1, FGFR2 (N549H) (Homo sapiens, UniProt P21802, N549H).
T1 construct: purchased Millipore 14-742
In words: FGFR2 kinase activity assay (fluorescent ELISA). Format: biochemical. On the procedure: The enzymatic assays described herein are conducted according to the following procedures from commercially available reagents. In one, non limiting, example, a fluorescent ELISA assay is used to identify and characterize inhibitors of FGFR2 kinase as described herein. This heterogeneous assay utilizes a biotinylated peptide with a tyrosine motif as a substrate and an anti-phospho-tyrosine antibody to measure phosphorylation of the substrate. The reaction is initiated by adding the test compound, 37 μM Pyk2 substrate (Midwest Biotech, Cat. # MBT2383), 12.5 μM ATP (Roche, Cat. #11 140 965 001) and 0.5 μM FGFR2 enzyme (Millipore, Cat. #14-742) sequentially to a non-binding polypropylene V-well plate. All reagents are in an assay buffer consisting of: 50 mM Tris-HCL, 0.02 mg/ml BSA, 10 mM MgCl2, 0.1 mM Na3VO4, 1 mM EGTA, 75 μM ATP, 0.01% NP-40, 2 mM DTT and 10% glycerol. The reaction is incubated for 60 minutes. As the reaction proceeds, FGFR2 phosphorylates tyrosines in the peptide. The reaction mixture is then moved to a blocked streptavidin-coated Nunc Maxisorb plate (coated with 100 ng streptavidin from Pierce (Cat. #15-124) per well), allowing for the capture of the biotinylated peptide. Peptides are captured for 30 minutes at room temperature, the phosphorylation of peptides continues during this phase. The reaction is stopped by washing the streptavidin-coated plate 6 times with TBST. Phosphorylated peptide is detected by adding anti-phospho-tyrosine antibody (Cell Signaling, Cat. #9411, diluted 1:3000) to the streptavidin-coated plate. Unbound anti-phospho-tyrosine antibody is removed by washing the streptavidin-coated plate 6 times with TBST. Secondary detection is performed using alkaline phosphatase tagged goat anti-mouse antibody (Pierce, Cat. #31320, diluted 1:4000) for one hour. Unbound secondary antibody is removed by washing the streptavidin-coated plate 6 times with TBST. The fluorescent readout is initiated by adding to the streptavidin-coated plate Promega Attophos substrate (Promega, Cat. # S1000, dilution=6 mg/10 ml), which, when dephosphorylated by alkaline phosphatase, emits a fluorescent signal of 595 nm in wavelength when excited by a signal of 400 nm in wavelength. The reading of the 595 nm signal is done on the Perkin Elmer Envision system. Compounds which prevent FGFR2 from phosphorylating the peptide result in a lower fluorescent signal. The 595 nm fluorescent signal is directly proportional to the activity of FGFR2. Thus, the inhibition of FGFR2 by compounds is monitored by the decrease in the 595 nm fluorescent signal.
A general note: In an ELISA, binding on a coated surface is turned into a signal by an enzyme label.

For test [2], the system named is DLD-1. In words: MTS assay, DLD-1. Conditions: Homo sapiens, DLD-1, 72 h. Format: cell-based. The procedure: (§1) Cells were maintained at 37° C., 5% CO2 in RPMI media supplemented with 1% fetal bovine serum, penicillin/streptomycin and fungizone (Invitrogen). Cells were seeded into 96-well tissue culture plates at 3000 per well and cultured at 37° C. for 18 h. Test compounds were dissolved and diluted to 300× in DMSO then diluted 1:40 in DMEM. Cells were incubated with test compounds for 72 hours followed by incubation with tetrazolium compound (3-(4,5-dimethylthiazol-2-yl)-5-(3-carboxymethoxyphenyl)-2-(4-sulfophenyl)-2H-tetrazolium, inner salt; MTS) and the electron coupling reagent, phenazine methosulfate (PMS) for 4 hours. […] The ability of compounds to inhibit cell growth in this assay is correlated with the reduction of dehydrogenase enzyme activity found in metabolically active cells. The measurement of the absorbance of the formazan was assessed using an ENVISION™ (Perkin Elmer) microplate reader at 492 nm. The calculated IC50 value is the concentration of the test compound that causes a 50% decrease in the absorbance.

Test [3] deals with MDA-MB-231. In words: MTS assay, MDA-MB-231. As to conditions: Homo sapiens, MDA-MB-231, 72 h. Format: cell-based. The procedure: as §1

T1 sequence (P21802 22-821 N549H): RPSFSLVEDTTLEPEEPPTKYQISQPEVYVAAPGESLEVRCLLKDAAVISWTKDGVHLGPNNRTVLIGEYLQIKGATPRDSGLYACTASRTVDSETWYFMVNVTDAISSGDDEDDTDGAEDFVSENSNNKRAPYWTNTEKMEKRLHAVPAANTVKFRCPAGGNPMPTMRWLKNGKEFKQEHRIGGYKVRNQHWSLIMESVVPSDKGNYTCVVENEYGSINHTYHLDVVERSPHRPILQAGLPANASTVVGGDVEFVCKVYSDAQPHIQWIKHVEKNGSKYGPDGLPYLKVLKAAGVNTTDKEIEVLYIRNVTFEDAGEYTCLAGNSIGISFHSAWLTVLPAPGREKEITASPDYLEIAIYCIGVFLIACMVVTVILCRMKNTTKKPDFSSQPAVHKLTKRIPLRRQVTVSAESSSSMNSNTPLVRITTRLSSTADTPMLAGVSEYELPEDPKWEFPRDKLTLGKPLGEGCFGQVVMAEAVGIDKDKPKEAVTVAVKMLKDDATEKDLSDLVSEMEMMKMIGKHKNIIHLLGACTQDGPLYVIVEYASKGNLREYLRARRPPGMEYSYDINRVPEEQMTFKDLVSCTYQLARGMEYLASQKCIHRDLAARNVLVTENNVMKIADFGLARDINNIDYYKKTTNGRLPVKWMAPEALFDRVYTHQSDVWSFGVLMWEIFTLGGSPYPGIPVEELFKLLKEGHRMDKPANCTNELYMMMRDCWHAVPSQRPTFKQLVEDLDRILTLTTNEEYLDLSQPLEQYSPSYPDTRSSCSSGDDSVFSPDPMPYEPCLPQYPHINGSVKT

In the case of `CCOC(=O)CNC(=O)N1CCC(CNc2nccc(-c3cn4c5c(cccc35)CCC4)n2)CC1` [Compound 34, ethyl 2-(4-((4-(5,6-dihydro-4H-pyrrolo[3,2,1-ij]quinolin-1-yl)pyrimidin-2-ylamino)methyl)piperidine-1-carboxamido)acetate], the inhibition – broadly, the relative decrease from the control value, in per cent – at 30 µM in test [1] turned out to be 60%. In test [2], the inhibition at 10 µM was 65%.

On to `O=S(=O)(c1ccc(Cl)cc1)N1CCC(CNc2nccc(-c3cn4c5c(cccc35)CCC4)n2)CC1` [Compound 35, N-((1-(4-chlorophenylsulfonyl)piperidin-4-yl)methyl)-4-(5,6-dihydro-4H-pyrrolo[3,2,1-ij]quinolin-1-yl)pyrimidin-2-amine], for which the inhibition at 10 µM in test [3] amounted to 98%; in test [2], 97%.

Consider `CC(C)(C)C(=O)N1CCC(CNc2nccc(-c3cn4c5c(cccc35)CCC4)n2)CC1` [Compound 36, 1-(4-((4-(5,6-dihydro-4H-pyrrolo[3,2,1-ij]quinolin-1-yl)pyrimidin-2-ylamino)methyl)piperidin-1-yl)-2,2-dimethylpropan-1-one], for which, in test [2], the inhibition at 10 µM worked out at 85%.

Consider `c1cc2c3c(c1)c(-c1ccnc(N[C@H]4CCCNC4)n1)cn3CCC2` [Compound 37, (S)-4-(5,6-dihydro-4H-pyrrolo[3,2,1-ij]quinolin-1-yl)-N-(piperidin-3-yl)pyrimidin-2-amine], for which the inhibition at 10 µM in test [3] and in test [2] was 83% each time. Also, the inhibition at 30 µM in test [1] came out at 102%.

For `COc1ccc(NC(=O)N2CCC(CNc3nccc(-c4cn5c6c(cccc46)CCC5)n3)CC2)cc1` [Compound 38, 4-((4-(5,6-dihydro-4H-pyrrolo[3,2,1-ij]quinolin-1-yl)pyrimidin-2-ylamino)methyl)-N-(4-methoxyphenyl)piperidine-1-carboxamide], the figures for the inhibition at 10 µM in test [3] and in test [2] were 98% and 97%, respectively. Further, in test [1], the inhibition at 30 µM amounted to 79%.

With `O=C(Nc1ccc(-c2ccccc2)cc1)N1CCC(CNc2nccc(-c3cn4c5c(cccc35)CCC4)n2)CC1` [Compound 39, N-(biphenyl-4-yl)-4-((4-(5,6-dihydro-4H-pyrrolo[3,2,1-ij]quinolin-1-yl)pyrimidin-2-ylamino)methyl)piperidine-1-carboxamide], the values for the inhibition at 10 µM in test [3] and in test [2] were 31% and 52%, respectively. Further, the inhibition at 30 µM in test [1] was 71%.

For `CCOC(=O)c1ccc(NC(=O)N2CCC(CNc3nccc(-c4cn5c6c(cccc46)CCC5)n3)CC2)cc1` [Compound 40, ethyl 4-(4-((4-(5,6-dihydro-4H-pyrrolo[3,2,1-ij]quinolin-1-yl)pyrimidin-2-ylamino)methyl)piperidine-1-carboxamido)benzoate], the inhibition at 10 µM in test [3] stood at 99%; in test [2], 98%. In test [1], the inhibition at 30 µM was 68%.

In the case of `CCOC(=O)NC(=O)N1CCC(CNc2nccc(-c3cn4c5c(cccc35)CCC4)n2)CC1` [Compound 41, ethyl 4-((4-(5,6-dihydro-4H-pyrrolo[3,2,1-ij]quinolin-1-yl)pyrimidin-2-ylamino)methyl)piperidine-1-carbonylcarbamate], the inhibition at 10 µM in test [3] came out at 33%. Further, the inhibition at 30 µM in test [1] was 68%.

`O=C(Nc1ccccc1)N1CCC(CNc2nccc(-c3cn4c5c(cccc35)CCC4)n2)CC1` [Compound 42, 4-((4-(5,6-dihydro-4H-pyrrolo[3,2,1-ij]quinolin-1-yl)pyrimidin-2-ylamino)methyl)-N-phenylpiperidine-1-carboxamide]: the inhibition at 10 µM was 79% in test [3] and 97% in test [2]. For the same molecule, the inhibition at 30 µM in test [1] stood at 66%.

As to `CCCNC(=O)N1CCC(CNc2nccc(-c3cn4c5c(cccc35)CCC4)n2)CC1` [Compound 43, 4-((4-(5,6-dihydro-4H-pyrrolo[3,2,1-ij]quinolin-1-yl)pyrimidin-2-ylamino)methyl)-N-propylpiperidine-1-carboxamide], the inhibition at 10 µM worked out at 43% in test [3] and 86% in test [2]. For the same molecule, the inhibition at 30 µM in test [1] amounted to 65%.

Consider `O=C(Nc1ccc(Cl)cc1)N1CCC(CNc2nccc(-c3cn4c5c(cccc35)CCC4)n2)CC1` [Compound 44, N-(4-chlorophenyl)-4-((4-(5,6-dihydro-4H-pyrrolo[3,2,1-ij]quinolin-1-yl)pyrimidin-2-ylamino)methyl)piperidine-1-carboxamide], for which the inhibition at 10 µM in test [3] is 84%; in test [2], 97%. Besides, the inhibition at 30 µM in test [1] came to 65%.

Consider `Cc1ccc(NC(=O)N2CCC(CNc3nccc(-c4cn5c6c(cccc46)CCC5)n3)CC2)cc1` [Compound 45, 4-((4-(5,6-dihydro-4H-pyrrolo[3,2,1-ij]quinolin-1-yl)pyrimidin-2-ylamino)methyl)-N-p-tolylpiperidine-1-carboxamide], for which the inhibition at 10 µM in test [3] came out at 72%; in test [2], 94%. The inhibition at 30 µM in test [1] was determined as 64%.

On to `CC(C)NC(=O)N1CCC(CNc2nccc(-c3cn4c5c(cccc35)CCC4)n2)CC1` [Compound 46, 4-((4-(5,6-dihydro-4H pyrrolo[3,2,1-ij]quinolin-1-yl)pyrimidin-2-ylamino)methyl)-N-isopropylpiperidine-1-carboxamide], for which the inhibition at 30 µM in test [1] turned out to be 61%. For the same molecule, the inhibition at 10 µM in test [2] is 52%.

In the case of `O=C(NCc1ccccc1)N1CCC(CNc2nccc(-c3cn4c5c(cccc35)CCC4)n2)CC1` [Compound 47, N-benzyl-4-((4-(5,6-dihydro-4H-pyrrolo[3,2,1-ij]quinolin-1-yl)pyrimidin-2-ylamino)methyl)piperidine-1-carboxamide], the values for the inhibition at 10 µM in test [3] and in test [2] were 97% and 98%, respectively. Also, the inhibition at 30 µM in test [1] came out at 60%.

In the case of `CS(=O)(=O)N1CCC(CNc2nccc(-c3cn4c5c(cccc35)CCC4)n2)CC1` [Compound 48, 4-(5,6-dihydro-4H-pyrrolo[3,2,1-ij]quinolin-1-yl)-N-((1-(methylsulfonyl)piperidin-4-yl)methyl)pyrimidin-2-amine], the inhibition at 30 µM in test [1] was 59%.

In the case of `CC(C)(C)NC(=O)N1CCC(CNc2nccc(-c3cn4c5c(cccc35)CCC4)n2)CC1` [Compound 52, N-tert-butyl-4-((4-(5,6-dihydro-4H-pyrrolo[3,2,1-ij]quinolin-1-yl)pyrimidin-2-ylamino)methyl)piperidine-1-carboxamide], in test [1], the inhibition at 30 µM amounted to 51%. In addition, the inhibition at 10 µM in test [2] amounted to 55%.

For `Cc1nnc(-c2cn3c4c(cccc24)CCC3)o1` [Compound 56, 1-(5-methyl-1,3,4-oxadiazol-2-yl)-5,6-dihydro-4H-pyrrolo[3,2,1-ij]quinoline], the inhibition at 10 µM in test [3] turned out to be 77%; in test [2] it was 94%.

`Clc1ccc(-c2nnc(-c3cn4c5c(cccc35)CCC4)o2)cc1` [Compound 63, 1-[5-(4-chlorophenyl)-1,3,4-oxadiazol-2-yl]-5,6-dihydro-4H-pyrrolo[3,2,1-ij]quinoline]: the results for the inhibition at 10 µM in test [3] and in test [2] were 100% and 98%, respectively.

As to `c1cc2c3c(c1)c(-c1nnnn1CC1CCNCC1)cn3CCC2` [Compound 81, 1-[1-(piperidin-4-ylmethyl)-1H-tetrazol-5-yl]-5,6-dihydro-4H-pyrrolo[3,2,1-ij]quinoline], the inhibition at 30 µM in test [1] turned out to be 91%.

Regarding `NC1CCC(n2nnnc2-c2cn3c4c(cccc24)CCC3)CC1` (stereo not shown) [Compound 82, 4-[5-(5,6-dihydro-4H-pyrrolo[3,2,1-ij]quinolin-1-yl)-1H-tetrazol-1-yl]cyclohexanamine], the inhibition at 30 µM in test [1] is 91%.

`c1cc2c3c(c1)c(-c1nnnn1C1CCCNC1)cn3CCC2` (stereo not shown) [Compound 83, 1-(1-piperidin-3-yl-1H-tetrazol-5-yl)-5,6-dihydro-4H-pyrrolo[3,2,1-ij]quinoline]: in test [1], the inhibition at 30 µM was 84%.
